Measurements reported in patent US8217048B2, “Inhibitors of serine proteases, particularly HCV NS3-NS4A protease” (Vertex Pharmaceuticals Incorporated, priority 2003, dated 2012).
Where “and” joins values, the source holds several entries; their conditions need not be identical. Equal entries are not always repeated.

Tests used:
[1] = tested on: Cells containing hepatitis C virus (HCV) replicon; test: HCV Replicon Cell Assay (Example 4); format: cell-based; conditions: 48 h, tested according to Example 4 (cell), 50% inhibition of HCV RNA level, 48-hour incubation
Procedure: HCV Replicon Cell Assay Protocol
Cells containing hepatitis C virus (HCV) replicon were maintained in DMEM containing 10% fetal bovine serum (FBS), 0.25 mg per ml of G418, with appropriate supplements (media A).
On day 1, replicon cell monolayer was treated with a trypsin:EDTA mixture, removed, and then media A was diluted into a final concentration of 100,000 cells per ml wit. 10,000 cells in 100 ul were plated into each well of a 96-well tissue culture plate, and cultured overnight in a tissue culture incubator at 37° C.
On day 2, compounds (in 100% DMSO) were serially diluted into DMEM containing 2% FBS, 0.5% DMSO, with appropriate supplements (media B). The final concentration of DMSO was maintained at 0.5% throughout the dilution series.
Media on the replicon cell monolayer was removed, and then media B containing various concentrations of compounds was added. Media B without any compound was added to other wells as no compound controls.
Cells were incubated with compound or 0.5% DMSO in media B for 48 hours in a tissue culture incubator at 37° C. At the end of the 48-hour incubation, the media was removed, and the replicon cell monolayer was washed once with PBS and stored at −80° C. prior to RNA extraction.
Culture plates with treated replicon cell monolayers were thawed, and a fixed amount of another RNA virus, such as Bovine Viral Diarrhea Virus (BVDV) was added to cells in each well, RNA extraction reagents (such as reagents from RNeasy kits) were added to the cells immediately to avoid degradation of RNA. Total RNA was extracted according the instruction of manufacturer with modification to improve extraction efficiency and consistency. Finally, total cellular RNA, including HCV replicon RNA, was eluted and stored at −80° C. until further processing.
A Taqman real-time RT-PCR quantification assay was set up with two sets of specific primers and probe. One was for HCV and the other was for BVDV. Total RNA extractants from treated HCV replicon cells was added to the PCR reactions for quantification of both HCV and BVDV RNA in the same PCR well. Experimental failure was flagged and rejected based on the level of BVDV RNA in each well. The level of HCV RNA in each well was calculated according to a standard curve run in the same PCR plate. The percentage of inhibition or decrease of HCV RNA level due to compound treatment was calculated using the DMSO or no compound control as 0% of inhibition. The IC50 (concentration at which 50% inhibition of HCV RNA level is observed) was calculated from the titration curve of any given compound.

[2] = molecular target: T1, HCV NS3-NS4A protease (Hepatitis C virus genotype 1a, UniProt P27958); test: HCV Ki Assay (enzyme, Example 5); format: biochemical; conditions: Ki values, tested according to Example 5 (enzyme); 5AB substrate, tNS3 with KK4A
T1 construct: The buffer, KK4A, DTT, and tNS3 were combined
Procedure: HPLC Microbore Method for Separation of 5AB Substrate and Products
NH2-Glu-Asp-Val-Val-(alpha)Abu-Cys-Ser-Met-Ser-Tyr-COOH
A stock solution of 20 mM 5AB (or concentration of your choice) was made in DMSO w/0.2M DTT. This was stored in aliquots at −20 C.
Buffer: 50 mM HEPES, pH 7.8; 20% glycerol; 100 mM NaCl
Total assay volume was 100 μL
The buffer, KK4A, DTT, and tNS3 were combined; distributed 78 μL each into wells of 96 well plate. This was incubated at 30 C for ˜5-10 min.
2.5 μL of appropriate concentration of test compound was dissolved in DMSO (DMSO only for control) and added to each well. This was incubated at room temperature for 15 min.
Initiated reaction by addition of 20 μL of 250 μM 5AB substrate (25 μM concentration is equivalent or slightly lower than the Km for 5AB).
Incubated for 20 min at 30 C.
Terminated reaction by addition of 25 μL of 10% TFA
Transferred 120 μL aliquots to HPLC vials
Separated SMSY product from substrate and KK4A by the following method:
Microbore Separation Method:
Instrumentation: Agilent 1100
Column thermostated chamber G1316A
Diode array detector G1315A
Solvent A=HPLC grade water+0.1% TFA
Solvent B=HPLC grade acetonitrile+0.1% TFA
Stop time: 17 min Post-run time: 10 min.

T1 sequence (P27958 1658-1711): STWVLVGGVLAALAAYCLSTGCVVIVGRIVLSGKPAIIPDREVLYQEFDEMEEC
T1 sequence (P27958 1027-1208): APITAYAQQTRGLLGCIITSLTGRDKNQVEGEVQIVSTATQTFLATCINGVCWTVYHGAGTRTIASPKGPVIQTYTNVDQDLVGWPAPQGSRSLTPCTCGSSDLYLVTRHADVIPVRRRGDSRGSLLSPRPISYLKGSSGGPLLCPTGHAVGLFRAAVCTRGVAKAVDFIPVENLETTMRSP

Structure (SMILES): CCC[C@H](NC(=O)[C@@H]1C[C@@H](Oc2ccc(NC(C)=O)cc2)CN1C(=O)[C@@H](NC(=O)[C@@H](NC(=O)c1cnccn1)C1CCCCC1)C(C)(C)C)C(=O)C(=O)NC1CC1 [Compound 51]
- IC50 [1]: > 1000 nM
- Ki [2]: < 100 nM

Structure (SMILES): CCC[C@H](NC(=O)[C@@H]1C[C@@H](Oc2ccc(S(=O)(=O)NC)cc2)CN1C(=O)[C@@H](NC(=O)[C@@H](NC(=O)c1cnccn1)C1CCCCC1)C(C)(C)C)C(=O)C(=O)NC1CC1 [Compound 48]
- IC50 [1]: < 500 nM
- Ki [2]: 100 to 300 nM

Structure (SMILES): CCC[C@H](NC(=O)[C@@H]1C[C@@H](Oc2cccc(-c3ccccc3)c2)CN1C(=O)[C@@H](NC(=O)[C@@H](NC(=O)c1cnccn1)C1CCCCC1)C(C)(C)C)C(=O)C(=O)NC1CC1 [Compound 15]
- IC50 [1]: < 500 nM
- Ki [2]: < 100 nM

Structure (SMILES): CCC[C@H](NC(=O)[C@@H]1C[C@@H](Oc2cccc(C(F)(F)F)c2)CN1C(=O)[C@@H](NC(=O)[C@@H](NC(=O)c1cnccn1)C1CCCCC1)C(C)(C)C)C(=O)C(=O)NC1CC1 [Compound 22]
- IC50 [1]: < 500 nM
- Ki [2]: 100 to 300 nM

Structure (SMILES): CCC[C@H](NC(=O)[C@@H]1C[C@@H](Oc2ccc(CC#N)cc2)CN1C(=O)[C@@H](NC(=O)[C@@H](NC(=O)c1cnccn1)C1CCCCC1)C(C)(C)C)C(=O)C(=O)NC1CC1 [Compound 65]
- IC50 [1]: < 500 nM
- Ki [2]: 100 to 300 nM

Structure (SMILES): CCC[C@H](NC(=O)[C@@H]1C[C@@H](Oc2ccc(Cl)cc2)CN1C(=O)[C@@H](NC(=O)[C@@H](NC(=O)c1cnccn1)C1CCCCC1)C(C)(C)C)C(=O)C(=O)NC1CC1 [Compound 56]
- IC50 [1]: < 500 nM
- Ki [2]: < 100 nM

Structure (SMILES): CCC[C@H](NC(=O)[C@@H]1C[C@@H](Oc2cccc(Cl)n2)CN1C(=O)[C@@H](NC(=O)[C@@H](NC(=O)c1cnccn1)C1CCCCC1)C(C)(C)C)C(=O)C(=O)NC1CC1 [Compound 25]
- Ki [2]: 100 to 300 nM

Structure (SMILES): CCCC(NC(=O)C1CC(Oc2cccc(Cl)c2Cl)CN1C(=O)C(NC(=O)C(NC(=O)c1cnccn1)C1CCCCC1)C(C)(C)C)C(=O)C(=O)NC1CC1 (stereo not shown) [Compound 5]
- IC50 [1]: 500 to 1000 nM
- Ki [2]: 100 to 300 nM

Structure (SMILES): CCC[C@H](NC(=O)[C@@H]1C[C@@H](Oc2ccc(C(=O)N3CCNCC3)cc2)CN1C(=O)[C@@H](NC(=O)[C@@H](NC(=O)c1cnccn1)C1CCCCC1)C(C)(C)C)C(=O)C(=O)NC1CC1 [Compound 71]
- IC50 [1]: > 1000 nM
- Ki [2]: 100 to 300 nM

Structure (SMILES): CCC[C@H](NC(=O)[C@@H]1C[C@@H](Oc2cccc3ccccc23)CN1C(=O)[C@@H](NC(=O)[C@@H](NC(=O)c1ncc[nH]1)C1CCCCC1)C(C)(C)C)C(=O)C(=O)NC1CC1 [Compound 37]
- Ki [2]: < 100 nM

Structure (SMILES): CCCC(NC(=O)[C@H]1C[C@H](Oc2nccc(C(F)(F)F)n2)CN1C(=O)C(NC(=O)C(NC(=O)c1cnccn1)C1CCCCC1)C(C)(C)C)C(=O)C(=O)NC1CC1 (stereo partly shown) [Compound 74]
- Ki [2]: > 300 nM

Structure (SMILES): CCC[C@H](NC(=O)[C@@H]1C[C@@H](Oc2ccc([N+](=O)[O-])cc2)CN1C(=O)[C@@H](NC(=O)[C@@H](NC(=O)c1cnccn1)C1CCCCC1)C(C)(C)C)C(=O)C(=O)NC1CC1 [Compound 44]
- IC50 [1]: < 500 nM
- Ki [2]: < 100 nM

Structure (SMILES): CCC[C@H](NC(=O)C1C[C@@H](Oc2ccccc2C(F)(F)F)CN1C(=O)[C@@H](NC(=O)[C@@H](NC(=O)c1cnccn1)C1CCCCC1)C(C)(C)C)C(=O)C(=O)NC1CC1 (stereo partly shown) [Compound 6]
- IC50 [1]: > 1000 nM
- Ki [2]: > 300 nM

Structure (SMILES): CCC[C@H](NC(=O)[C@@H]1C[C@@H](Oc2ccccc2)CN1C(=O)[C@@H](NC(=O)[C@@H](NC(=O)c1cnccn1)C1CCCCC1)C(C)(C)C)C(=O)C(=O)NC1CC1 [Compound 35]
- IC50 [1]: < 500 nM
- Ki [2]: < 100 nM

Structure (SMILES): CCCC(NC(=O)[C@H]1C[C@H](Oc2ccc(-c3ccccc3)nn2)CN1C(=O)C(NC(=O)C(NC(=O)c1cnccn1)C1CCCCC1)C(C)(C)C)C(=O)C(=O)NC1CC1 (stereo partly shown) [Compound 28]
- Ki [2]: > 300 nM

Structure (SMILES): C=CCCC(=O)C(=O)[C@H](CCC)NC(=O)[C@@H]1C[C@@H](Oc2ccc(Cl)cn2)CN1C(=O)[C@@H](NC(=O)[C@@H](NC(=O)c1cnccn1)C1CCCCC1)C(C)(C)C [Compound 76]
- Ki [2]: 100 to 300 nM and > 300 nM

Structure (SMILES): CCC[C@H](NC(=O)[C@@H]1C[C@@H](Oc2ccccc2-c2ccccc2)CN1C(=O)[C@@H](NC(=O)[C@@H](NC(=O)c1cnccn1)C1CCCCC1)C(C)(C)C)C(=O)C(=O)NC1CC1 [Compound 17]
- Ki [2]: > 300 nM

Structure (SMILES): CCCC(NC(=O)[C@H]1C[C@H](Oc2nccc(-c3ccccc3)c2C#N)CN1C(=O)C(NC(=O)C(NC(=O)c1cnccn1)C1CCCCC1)C(C)(C)C)C(=O)C(=O)NC1CC1 (stereo partly shown) [Compound 31]
- Ki [2]: 100 to 300 nM

Structure (SMILES): CCCC(NC(=O)[C@H]1C[C@H](Oc2ncccc2[N+](=O)[O-])CN1C(=O)C(NC(=O)C(NC(=O)c1cnccn1)C1CCCCC1)C(C)(C)C)C(=O)C(=O)NC1CC1 (stereo partly shown) [Compound 33]
- Ki [2]: 100 to 300 nM

Structure (SMILES): CCC[C@H](NC(=O)[C@@H]1C[C@@H](Oc2ccc(Cl)cn2)CN1C(=O)[C@@H](NC(=O)[C@@H](NC(=O)[C@H](C)NC(=O)OC)C1CCCCC1)C(C)(C)C)C(=O)C(=O)NC1CC1 [Compound 69]
- Ki [2]: < 100 nM

Structure (SMILES): CCCC(NC(=O)[C@H]1C[C@H](Oc2ccnc(C(F)(F)F)n2)CN1C(=O)C(NC(=O)C(NC(=O)c1cnccn1)C1CCCCC1)C(C)(C)C)C(=O)C(=O)NC1CC1 (stereo partly shown) [Compound 29]
- Ki [2]: > 300 nM

Structure (SMILES): CCC[C@H](NC(=O)[C@@H]1C[C@@H](Oc2cccc(OC)c2OC)CN1C(=O)[C@@H](NC(=O)[C@@H](NC(=O)c1cnccn1)C1CCCCC1)C(C)(C)C)C(=O)C(=O)NC1CC1 [Compound 23]
- Ki [2]: 100 to 300 nM

Structure (SMILES): CCC[C@H](NC(=O)C1C[C@@H](Oc2ccccc2OC(F)(F)F)CN1C(=O)[C@@H](NC(=O)[C@@H](NC(=O)c1cnccn1)C1CCCCC1)C(C)(C)C)C(=O)C(=O)NC1CC1 (stereo partly shown) [Compound 9]
- Ki [2]: > 300 nM

Structure (SMILES): CCC[C@H](NC(=O)[C@@H]1C[C@@H](Oc2cccc(OC)c2)CN1C(=O)[C@@H](NC(=O)[C@@H](NC(=O)c1cnccn1)C1CCCCC1)C(C)(C)C)C(=O)C(=O)NC1CC1 [Compound 21]
- Ki [2]: > 300 nM

Structure (SMILES): CCC[C@H](NC(=O)[C@@H]1C[C@@H](Oc2ccc(Cl)cn2)CN1C(=O)[C@@H](NC(=O)[C@@H](NC(=O)c1cnccn1)C1CCCCC1)C(C)(C)C)C(=O)C(=O)CC(C)C [Compound 75]
- Ki [2]: > 300 nM

Structure (SMILES): CCCC(NC(=O)[C@H]1C[C@H](Oc2ncncc2F)CN1C(=O)C(NC(=O)C(NC(=O)c1cnccn1)C1CCCCC1)C(C)(C)C)C(=O)C(=O)NC1CC1 (stereo partly shown) [Compound 32]
- Ki [2]: < 100 nM

Structure (SMILES): CCCC(NC(=O)[C@H]1C[C@H](Oc2cc(C(F)(F)F)ncn2)CN1C(=O)C(NC(=O)C(NC(=O)c1cnccn1)C1CCCCC1)C(C)(C)C)C(=O)C(=O)NC1CC1 (stereo partly shown) [Compound 30]
- Ki [2]: 100 to 300 nM

Structure (SMILES): CCC[C@H](NC(=O)[C@@H]1C[C@@H](Oc2ccc(C(=O)OC)cc2)CN1C(=O)[C@@H](NC(=O)[C@@H](NC(=O)c1cnccn1)C1CCCCC1)C(C)(C)C)C(=O)C(=O)NC1CC1 [Compound 52]
- Ki [2]: < 100 nM

Structure (SMILES): CCCC(NC(=O)[C@H]1C[C@H](Oc2ccc(C(F)(F)F)cn2)CN1C(=O)C(NC(=O)C(NC(=O)c1cnccn1)C1CCCCC1)C(C)(C)C)C(=O)C(=O)NC1CC1 (stereo partly shown) [Compound 27]
- Ki [2]: > 300 nM
